Experimental data as given in patent US8802675B2, “Neuroprotective multifunctional compounds and pharmaceutical compositions comprising them” (priority 2009, dated 2014).
“And” between values parts separate entries of the source, which are not always exact repeats. Equal entries are not always repeated. Where two headings read alike, the source gives them in different places.

Columns and labels:
[1] = molecular target: T1, rat brain MAO-A (Rattus norvegicus, UniProt P21396); test: biochemical
T1 construct: from tissue; host or cells: rat brain homogenate
T1 sequence (P21396 1-526): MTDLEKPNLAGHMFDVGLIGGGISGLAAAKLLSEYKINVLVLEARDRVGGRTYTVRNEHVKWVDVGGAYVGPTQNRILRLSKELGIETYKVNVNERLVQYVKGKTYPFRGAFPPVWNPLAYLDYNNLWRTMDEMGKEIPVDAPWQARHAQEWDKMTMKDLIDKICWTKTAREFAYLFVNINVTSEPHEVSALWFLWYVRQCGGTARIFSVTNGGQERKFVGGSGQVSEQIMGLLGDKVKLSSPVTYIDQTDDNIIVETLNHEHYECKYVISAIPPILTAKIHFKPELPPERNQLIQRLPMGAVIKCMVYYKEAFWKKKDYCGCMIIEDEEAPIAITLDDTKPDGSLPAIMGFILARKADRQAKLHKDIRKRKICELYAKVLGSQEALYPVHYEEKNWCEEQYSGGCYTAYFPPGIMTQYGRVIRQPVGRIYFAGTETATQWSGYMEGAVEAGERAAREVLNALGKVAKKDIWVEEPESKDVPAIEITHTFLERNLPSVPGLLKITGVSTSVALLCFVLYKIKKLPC
Experimental: (§1) Rats were decapitated and the brains were quickly taken into a pre-weighted ice-cold sucrose buffer (10 mM Tris-HCl buffer, pH 7.4, containing 0.32 M sucrose), and their weights were measured. The brains were homogenized at 0-4° C. in 0.32 M sucrose (one part tissue to 20 parts sucrose) in a Teflon glass homogenizer. The resultant homogenates were used to determine MAO activity. Protein concentration was determined with Bradford reagent at 595 nm, using bovine serum albumin as a standard.
(§2) The activity of MAO-A and MAO-B were determined by the adapted method of Tipton & Youdim (Tipton et al. 1983). Briefly, the multifunctional compound tested was added to a suitable dilution of the enzyme preparation (70 μg MAO-B and 150 μg MAO-A) in 0.05 M phosphate buffer (pH 7.4). The mixture was incubated together with 0.05 μM 1-deprenyl, a specific inhibitor of MAO-B (for determination of MAO-A activity in the presence of the test compound) or 0.05 μM clorgyline a specific inhibitor of MAO-A (for determination of MAO-B activity). […] The reaction was stopped with 2M ice-cold citric acid, and the radioactive metabolites (5-hydroxytryptaldehyde and phenylacetaldehyde) were extracted by addition of 2 ml of ethylacetate/toluene (1:1 vol/vol). The radioactivity contained in the organic phase was determined by liquid-scintillation counting in cpm units.
(§3) MAO-A and MAO-B activities were determined in rat brain homogenate in vitro following incubation with varying concentrations of the test compounds.
(§4) The results are the mean SEM, n=3 in triplicates.

[2] = molecular target: T2, rat brain MAO-B (Rattus norvegicus, UniProt P19643); test: biochemical; settings: for inhibition at 10 µM: read-out: percent inhibition MAO-B
T2 construct: from tissue; host or cells: rat brain homogenate
T2 sequence (P19643 1-520): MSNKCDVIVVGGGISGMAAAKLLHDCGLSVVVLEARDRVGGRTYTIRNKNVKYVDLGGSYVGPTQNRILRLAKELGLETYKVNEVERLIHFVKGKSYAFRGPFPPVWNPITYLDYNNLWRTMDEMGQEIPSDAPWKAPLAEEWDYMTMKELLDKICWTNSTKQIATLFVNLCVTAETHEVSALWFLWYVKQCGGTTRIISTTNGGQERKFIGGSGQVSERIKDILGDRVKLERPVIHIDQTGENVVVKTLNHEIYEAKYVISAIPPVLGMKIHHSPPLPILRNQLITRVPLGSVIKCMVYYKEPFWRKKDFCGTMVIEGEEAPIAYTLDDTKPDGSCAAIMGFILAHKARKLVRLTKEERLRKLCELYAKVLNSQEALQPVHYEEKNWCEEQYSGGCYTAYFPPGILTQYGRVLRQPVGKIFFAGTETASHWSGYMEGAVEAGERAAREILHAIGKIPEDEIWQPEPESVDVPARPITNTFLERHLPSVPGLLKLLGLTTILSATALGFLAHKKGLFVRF
Experimental: as §1, §2, §3, §4

[3] = IC50 MAO-A, rat brain homogenate in vitro, mean SEM, n=3 in triplicates
[4] = IC50 MAO-B, rat brain homogenate in vitro, mean SEM, n=3 in triplicates

| SMILES | IC50 [1, 3] | inhibition at 10 µM [2] | IC50 [2, 4] | also measured |
| --- | --- | --- | --- | --- |
| C#CCN(C)Cc1ccc(OC(=O)N(C)CC)c2ncccc12 [Compound 3, 5-((methyl(propargyl)amino)methyl)quinolin-8-yl ethyl(methyl)carbamate] | < 100 nM | 9% |  |  |
| C#CCN(C)Cc1ccc(OC(=O)N2CCCC2)c2ncccc12 [Compound 5, 5-((methyl(propargyl)amino)methyl)quinolin-8-yl pyrrolidine-1-carboxylate] | 4.7 to 20 nM and 4.9 nM |  | 5060 nM and 5600 nM |  |
| C#CCN(C)Cc1ccc(OC(=O)N2CCN(Cc3ccccc3)CC2)c2ncccc12 [Compound 13, 5-((methyl(propargyl)amino)methyl)quinolin-8-yl 4-benzyl piperazine-1-carboxylate] | 4.7 to 20 nM and 20 nM |  | 84 nM |  |
| C#CCC1CCN(Cc2ccc(OC(=O)N(C)C)c3ncccc23)CC1 [Compound 23, 5-((4-(propargyl)piperidin-1-yl)methyl)quinolin-8-yl dimethylcarbamate] |  | 3% |  | inhibitory effect on MAO-A ([1]; rat brain homogenate): minor to none inhibitory effects; inhibition at 10 µM ([1]; read-out: percent inhibition MAO-A): 13%; inhibitory effect on MAO-B ([2]; rat brain homogenate): minor to none inhibitory effects |
| C#CCN(C)Cc1ccc(O)c2ncccc12 [M30, reference compound] |  |  |  | IC50 [1]: 37 ± 20 nM; IC50 [2]: 57 ± 10 nM |
